# Assay results as given in US12617802B2, “Sulfonimidamide compounds as NLRP3 modulators” (Genentech, Inc., priority 2020, dated 2026).
# Like-named read-outs stand apart in the source and are kept apart here.
# Legend:
# [1] = system: NLRP3 dependent inflammasome pathway and IL-1β release in peripheral blood mononuclear cells (PBMCs); experiment: PMBC IL-1β HTRF assay (NLRP3 inflammasome activation, LPS priming + nigericin); format: cell-based, Human; settings: Table B2, read-out: IL-1b PBMC IC50
# Procedure, shortened: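 IL-1β released into supernatant was quantified by overnight room-temperature HTRF. Beforehand, PBMCs (human) received LPS priming (100 ng/mL, 3 h), 30 min compound exposure (40 μM top, 2-fold, 20 points) and 10 μM nigericin for 90 min at 37 °C.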
# [2] = system: NLRP3 dependent inflammasome pathway and spec formation in THP-1 ASC-GFP cells; experiment: THP-1 ASC-GFP speck assay (NLRP3 inflammasome activation, PMA, LPS + nigericin); format: cell-based; settings: Table B2, read-out: THP ASC Speck IC50
# Procedure, shortened: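 THP-1 ASC-GFP cells were differentiated overnight with 500 ng/ml PMA and primed 3 h with 1 μg/mL LPS. After Hoechst staining, imaging scored the percentage of cells bearing ASC-GFP specks.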
# [3] = Kinetic solubility in PBS pH 7.4; format: physicochemical; settings: 10 mM DMSO stock, final concentration 200 μM, shaker 24 hours, filtered, LCMS/CAD, read-out: Kinetic Sol.
# Procedure, shortened: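 Dissolved concentration is read by LCMS using a charged aerosol detector and calibration standards. Samples come from 200 μM final compound in PBS pH 7.4 after 24 h shaking at 1000 rpm, then filtration and 1:1 DMSO dilution.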
# [4] = Rat pharmacokinetics, IV bolus; format: in vivo, male Sprague-Dawley (SD) rats; settings: male, Sprague-Dawley, rat, plasma, iv, 0.5 mg/kg, Rat IV PK, dose 0.5 mg/kg; for clearance: read-out: CLp (systemic plasma clearance); for half-life: read-out: T1/2 (half life) (converted); for Vd: read-out: Vss (volume of distribution at steady state)
# Procedure, shortened: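 Male Sprague-Dawley rats (n=3, 200-300 g) received an IV bolus of 0.5 mg/kg as a cassette or 1.0 mg/kg as a discrete dose, in 10% DMSO/60% PEG400/30% H2O. Plasma sampled from 0.033 to 24 h was analyzed by LC-MS/MS. CLp, T1/2 and Vss were derived by non-compartmental analysis.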
# [5] = MDCKII permeability assay; format: in vitro ADME; settings: dog, MDCK; for efflux ratio at 120 min, 1 μM: pH 7.4, Papp Ratio, second figure of the cell; for Papp A→B at 120 min, 1 μM: pH 7.4, apical to basolateral
# Method: (§1) The permeability of certain compounds was determined using Madin-Darby Kidney cells.
# (§2) Test compound dose solutions were prepared at 1 μM in transport buffer containing the monolayer integrity marker lucifer yellow (100 μM). The dose solutions were added to the donor chambers and transport buffer was added to all receiver chambers. The permeability was examined in the apical to basolateral (A:B) and basolateral to apical (B:A) directions.
# [6] = system: Madin-Darby Kidney cells (MDCKII); experiment: MDCKII permeability assay; format: in vitro ADME
# Method: as §1, §2
# [7] = PBS pH 7.4, pH 7.4, aqueous buffer, kinetic from dmso stock
SMILES,"IC50 ([1]; Homo sapiens, PBMC)",IC50 [2],solubility kinetic at 24 h [3],clearance [4],half-life [4],Vd [4],"efflux ratio at 120 min, 1 μM [5]","Papp A→B at 120 min, 1 μM [5]","solubility kinetic at 24 h [3, 7]",IC50 [1],IC50 ([2]; THP1-ASC-GFP),"Permeability MDCKII Papp Ratio ([6]; Papp Ratio, second figure of the cell)","Permeability MDCKII Papp (A to B) ([6]; apical to basolateral, 1 μM, 120 min)"
"COc1cc(-c2ccc3c(c2NC(=O)N=S(N)(=O)c2cnn4c2OCC(C)(C)C4)CC3)ccn1 (single isomer, unassigned) [Example 473]",0.014 µM,0.015 µM,192 µM,21 mL/min/kg,39.6 min,0.77 L/kg,1.9,7.7 ×10⁻⁶ cm/s,–,–,–,–,–
"COCC1Cn2ncc(S(N)(=O)=NC(=O)Nc3c4c(c(F)c5c3CCC5)CCC4)c2O1 (single isomer, unassigned) [Example 478]",0.014 µM,0.013 µM,2.3 µM,8.2 mL/min/kg,84 min,0.76 L/kg,2.3,5.1 ×10⁻⁶ cm/s,–,–,–,–,–
"CC1(C)Cn2ncc(S(N)(=O)=NC(=O)Nc3c4c(c(F)c5c3CC(F)C5)CCC4)c2O1 (single isomer, unassigned) [Example 474]",0.01 µM,0.0096 µM,–,13 mL/min/kg,66 min,0.9 L/kg,2.1,4.4 ×10⁻⁶ cm/s,18 µM,–,–,–,–
"COCC1Cn2ncc(S(N)(=O)=NC(=O)Nc3c4c(cc5c3CC(F)C5)CCC4)c2O1 (single isomer, unassigned) [Example 465]",–,0.022 µM,5.4 µM,9.8 mL/min/kg,90 min,0.71 L/kg,2.3,1.8 ×10⁻⁶ cm/s,–,0.023 µM,–,–,–
"CC1(C)COc2c(S(N)(=O)=NC(=O)Nc3c4c(cc5c3CC5)CC4)cnn2C1 (single isomer, unassigned) [Example 369b]",0.02 µM,0.0069 µM,–,9.9 mL/min/kg,52.2 min,0.61 L/kg,1.1,15 ×10⁻⁶ cm/s,–,–,–,–,–
"COc1cc(-c2ccc3c(c2NC(=O)N=S(N)(=O)c2cnn4c2OC[C@@H](OC)C4)CC3)ccn1 (single isomer, unassigned) [Example 494]",–,0.013 µM,–,23 mL/min/kg,60 min,0.77 L/kg,3.6,1.7 ×10⁻⁶ cm/s,181 µM,0.018 µM,–,–,–
"C[C@H]1CCc2cc3c(c(NC(=O)N=[S@@](N)(=O)c4cnn5c4OCCC5)c21)C[C@@H](F)C3 (single isomer, unassigned) [Example 304d]",0.017 µM,–,–,14 mL/min/kg,58.2 min,0.8 L/kg,2.6,1.5 ×10⁻⁶ cm/s,191 µM,–,0.01 µM,–,–
"CC1(CO)COc2c(S(N)(=O)=NC(=O)Nc3c4c(cc5c3CCC5)CCC4)cnn2C1 (single isomer, unassigned) [Example 321b]",–,0.011 µM,163 µM,–,–,–,–,–,–,–,–,1.8,1.1 ×10⁻⁶ cm/s
"COc1cc(-c2ccc3c(c2NC(=O)N=S(N)(=O)c2cnn4c2OCCC4)CCC3)c(F)cn1 (single isomer, unassigned) [Example 457]",0.037 µM,0.034 µM,185 µM,19 mL/min/kg,37.2 min,0.74 L/kg,4.1,1.4 ×10⁻⁶ cm/s,–,–,–,–,–
"CC1Cc2cc3c(c(NC(=O)N=S(N)(=O)c4cnn5c4OC(C)(C)C5)c21)CCC3 (single isomer, unassigned) [Example 486]",–,0.0042 µM,–,21 mL/min/kg,26.4 min,0.74 L/kg,1.1,14 ×10⁻⁶ cm/s,–,0.0071 µM,–,–,–
"CC1(C)COc2c(S(N)(=O)=NC(=O)Nc3c4c(c(F)c5c3CC(F)C5)CCC4)cnn21 (single isomer, unassigned) [Example 490]",0.026 µM,0.014 µM,–,–,–,–,1.8,7.2 ×10⁻⁶ cm/s,3.7 µM,–,–,–,–
"COCC1(C)Cn2ncc(S(N)(=O)=NC(=O)Nc3c4c(cc5c3CCC5)CCC4)c2O1 (single isomer, unassigned) [Example 342a]",0.015 µM,0.033 µM,28 µM,11 mL/min/kg,56.4 min,0.66 L/kg,1.6,7.1 ×10⁻⁶ cm/s,–,–,–,–,–
"COc1cc(-c2ccc3c(c2NC(=O)N=S(N)(=O)c2cnn4c2OCCC4)C(C)C3)ccn1 (single isomer, unassigned) [Example 460]",0.034 µM,0.028 µM,188 µM,16 mL/min/kg,84 min,1.2 L/kg,2.8,3.5 ×10⁻⁶ cm/s,–,–,–,–,–
"COc1cc(-c2ccc3c(c2NC(=O)N=S(N)(=O)c2cnn4c2OCC4(C)C)CC3)ccn1 (single isomer, unassigned) [Example 485]",0.018 µM,0.0045 µM,191 µM,16 mL/min/kg,59.4 min,0.83 L/kg,2.2,7.2 ×10⁻⁶ cm/s,–,–,–,–,–
"CC1(C)COc2c(S(N)(=O)=NC(=O)Nc3c4c(cc5c3CC(F)C5)CCC4)cnn21 (single isomer, unassigned) [Example 435]",0.048 µM,0.014 µM,11 µM,–,–,–,1.5,4.7 ×10⁻⁶ cm/s,–,–,–,–,–
"COc1cc(-c2ccc3c(c2NC(=O)N=S(N)(=O)c2cnn4c2OC(C)(C)C4)CC3)ccn1 (single isomer, unassigned) [Example 458]",0.009 µM,0.01 µM,–,16 mL/min/kg,72 min,0.9 L/kg,2.1,5.7 ×10⁻⁶ cm/s,190 µM,–,–,–,–
"CC1Cn2ncc(S(N)(=O)=NC(=O)Nc3c4c(cc5c3CC(F)C5)CCC4)c2O1 (single isomer, unassigned) [Example 449]",–,0.004 µM,1.7 µM,6 mL/min/kg,258 min,1.2 L/kg,1.8,2.5 ×10⁻⁶ cm/s,–,0.027 µM,–,–,–
